# Results from patent US20080102497A1, “ENZYMATIC HYDROLYSIS OF STARCH” (priority 2006, published 2008).
# Several values for one entry are separate records, joined by “and”; a condition that tells them apart may be missing. Equal values may be shown once.
# Tests used:
# Assay type in all cases: biochemical
# [1] = system: enzyme mixture of purified glucoamylase from mushroom and purified α-amylase from barley; assay: hydrolysis of raw corn starch by enzyme mixture, reducing sugar by DNSA; conditions: summary of Table 2
# Protocol: Enzyme mixture was also pre-incubated with 10 mM Fe^++, Cu^++, Ca^++, Mg^++, or disodium ethylenediamine-tetraacetic acid (EDTA). Thereafter, 40 μl of each pre-incubation solution was added to 15 mg raw corn starch, and the reaction mixture incubated at 37° C. for 20 minutes. The control reaction mixture contained substrate, enzyme, and buffer but no additional metal ions. The starch hydrolysis reaction was stopped by combining the reaction mixture with a solution containing 3,5 dinitrosalicylic acid (DNSA) and heating for 30 min at 85° C. The absorbance of the control and test samples was measured at 562 nm to monitor the amount of reducing sugar in each sample.
# [2] = system: glucoamylase from Rhizopus sp.; assay: hydrolysis of raw corn starch, reducing sugar by DNSA; conditions: for Relative Activity: raw corn starch, pH 5.3, 37° C., 20 min
# From the text: (§1) The α-amylase from Aspergillus oryzae and the glucoamylase from Rhizopus sp.
# [3] = biological target: α-amylase from Aspergillus oryzae (Aspergillus oryzae, UniProt P0C1B3); assay: as above; conditions: for Relative Activity: raw corn starch, pH 5.3, 37° C., 20 min
# From the text: as §1
# [4] = system: glucoamylase from Rhizopus sp.; assay: temperature effect on conversion of raw corn starch; conditions: 1 mM Mn^++; for % Conversion: 10 min, raw corn starch, pH 5.3
# Protocol: An enzyme solution of the glucoamylase from Rhizopus sp. […] Thereafter, 50 μl of the enzyme solution was added to each of four samples containing 15 mg raw corn starch and incubated at 22° C., 32° C., 40° C. or 50° C., respectively, for 10 minutes.
# [5] = biological target: T1, β-amylase Type II-B from barley (Hordeum vulgare, UniProt P16098); assay: hydrolysis of raw corn starch or soluble starch; conditions: for % Relative Activity: pH 5.3, 37° C., 20 min
# T1 construct: purchased Sigma Sigma-7130
# Protocol: Each of the buffered enzyme solutions was separately added to 15 mg raw corn starch or 0.6 mg soluble starch, and the reaction mixtures incubated at 37° C. for 20 minutes. The control reaction mixture contained substrate, enzyme, and buffer but no manganese ion. The starch hydrolysis reaction was stopped by combining the reaction mixture with a solution containing DNSA and heating for 30 min at 85° C. The absorbance of the control and test samples was measured at 562 nm to monitor the amount of reducing sugar in each sample.
# β-amylase from barley [6] = biological target: T2, β-amylase from barley (Hordeum vulgare, UniProt P16098); assay: hydrolysis of cooked corn starch varieties; conditions: pH 5.2, 37° C., 10 min
# Protocol: The separate reaction mixtures were incubated at 37° C. for 10 minutes. The control reaction mixture contained enzyme, buffer, and starch but no manganese ion. The starch hydrolysis reaction was stopped by combining the reaction mixture with a solution containing DNSA and heating for 30 min at 85° C. The absorbance of the control and test samples was measured at 562 nm to monitor the amount of reducing sugar in each sample.
# [7] = biological target: α-amylase from Bacillus licheniformis (Bacillus licheniformis, UniProt P06278); assay: hydrolysis of cooked dent corn starch; conditions: cooked dent corn starch 0.5%, pH 5.2, 37° C., 10 min
# Protocol: (§2) The separate reaction mixtures were incubated at 37° C. for 10 minutes. The control reaction mixtures contained enzyme, buffer, and starch but no manganese ion. The starch hydrolysis reaction was stopped by combining the reaction mixture with a solution containing DNSA and heating for 30 min at 85° C. The absorbance of the control and test samples was measured at 562 nm to monitor the amount of reducing sugar in each sample.
# [8] = system: α-amylase from Bacillus subtilis; assay: hydrolysis of cooked dent corn starch; conditions: 0.01 mM Mn^++; cooked dent corn starch 0.5%; pH 5.2; 37° C., 10 min
# Protocol: as §2
# [9] = biological target: T3, β-amylase from sweet potato (Ipomoea batatas, UniProt P10537); assay: hydrolysis of cooked dent corn starch; conditions: cooked dent corn starch 0.5%, pH 5.2, 37° C., 10 min
# T3 construct: purchased Sigma A-7005
# Protocol: as §2
# β-amylase from barley [10] = biological target: T2, β-amylase from barley; assay: pH effect on hydrolysis of cooked dent corn starch; conditions: 1 mM Mn^++; for Relative Activity: cooked dent corn starch 0.5%, 37° C., 10 min, control at pH 5 = 100
# Protocol: The separate reaction mixtures were then incubated at 37° C. for 10 minutes. The control reaction mixture contained enzyme, buffer, and starch but no manganese ion. The starch hydrolysis reaction was stopped by combining the reaction mixture with a solution containing DNSA and heating for 30 min at 85° C. The absorbance of the control and test samples was measured at 562 nm to monitor the amount of reducing sugar in each sample.
# [11] = system: enzyme mixture of purified glucoamylase from mushroom and purified α-amylase from barley; assay: hydrolysis of raw corn starch by enzyme mixture, reducing sugar by DNSA; conditions: pH 5.3, 37° C., 20 min
# T2 sequence (P16098 whole entry): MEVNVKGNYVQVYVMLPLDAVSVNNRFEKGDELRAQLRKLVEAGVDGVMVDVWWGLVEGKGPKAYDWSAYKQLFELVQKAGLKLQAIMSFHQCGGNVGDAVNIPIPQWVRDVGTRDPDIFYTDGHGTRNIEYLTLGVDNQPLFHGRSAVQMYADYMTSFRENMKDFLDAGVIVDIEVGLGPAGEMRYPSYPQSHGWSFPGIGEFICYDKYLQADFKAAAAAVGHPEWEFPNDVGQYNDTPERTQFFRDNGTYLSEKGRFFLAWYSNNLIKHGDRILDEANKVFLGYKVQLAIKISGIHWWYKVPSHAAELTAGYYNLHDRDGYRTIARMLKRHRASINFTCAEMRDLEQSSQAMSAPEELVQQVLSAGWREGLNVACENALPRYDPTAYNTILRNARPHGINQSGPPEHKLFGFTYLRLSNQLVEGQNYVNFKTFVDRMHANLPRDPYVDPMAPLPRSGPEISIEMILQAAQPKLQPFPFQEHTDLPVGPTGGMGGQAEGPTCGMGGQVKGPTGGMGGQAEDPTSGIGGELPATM
# T1 sequence (P16098 whole entry): as above
# Chain of α-amylase from Bacillus licheniformis (P06278 30-512): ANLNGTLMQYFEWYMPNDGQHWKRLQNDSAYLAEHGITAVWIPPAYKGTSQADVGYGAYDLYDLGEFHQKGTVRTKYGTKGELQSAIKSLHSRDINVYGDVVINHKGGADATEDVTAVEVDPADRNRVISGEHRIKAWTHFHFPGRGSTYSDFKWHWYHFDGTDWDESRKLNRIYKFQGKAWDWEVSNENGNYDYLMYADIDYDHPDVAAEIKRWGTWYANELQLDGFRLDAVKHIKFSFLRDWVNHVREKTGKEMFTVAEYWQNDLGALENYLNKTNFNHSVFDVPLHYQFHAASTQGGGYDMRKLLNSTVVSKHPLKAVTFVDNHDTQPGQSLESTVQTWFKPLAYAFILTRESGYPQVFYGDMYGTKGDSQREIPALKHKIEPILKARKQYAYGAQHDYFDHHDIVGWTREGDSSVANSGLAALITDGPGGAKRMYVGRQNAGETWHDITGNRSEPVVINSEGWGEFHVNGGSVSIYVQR
# T3 sequence (P10537 whole entry): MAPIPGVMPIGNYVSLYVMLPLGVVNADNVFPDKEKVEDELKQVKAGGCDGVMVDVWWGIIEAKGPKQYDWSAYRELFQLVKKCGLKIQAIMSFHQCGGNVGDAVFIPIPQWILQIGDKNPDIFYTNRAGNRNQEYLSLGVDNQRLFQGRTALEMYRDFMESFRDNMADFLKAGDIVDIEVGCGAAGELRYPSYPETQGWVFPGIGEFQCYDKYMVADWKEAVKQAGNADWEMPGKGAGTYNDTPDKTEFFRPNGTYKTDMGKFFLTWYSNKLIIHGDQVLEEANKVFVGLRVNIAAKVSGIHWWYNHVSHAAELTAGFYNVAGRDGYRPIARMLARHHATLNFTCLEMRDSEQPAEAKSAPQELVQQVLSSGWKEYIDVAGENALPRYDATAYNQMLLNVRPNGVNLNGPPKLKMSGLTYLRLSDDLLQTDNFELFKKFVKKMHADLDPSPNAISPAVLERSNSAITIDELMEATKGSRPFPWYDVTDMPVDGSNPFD
compound,measurement,setting,value
"[Mn+2] [Mn^++, manganese ions]",effect on hydrolysis of raw corn starch (in words),[1],enhances the hydrolysis of raw corn starch
same,Relative Activity,[2]; 0.01 mM Mn^++,105.0%
same,Relative Activity,[2]; 0.1 mM Mn^++,119.2%
same,Relative Activity,[2]; 1 mM Mn^++,133.5%
same,Relative Activity,[2]; 10 mM Mn^++,162.6%
same,effect on hydrolysis of raw corn starch (in words),[2]; summary of Table 3,enhances the hydrolysis of raw corn starch
same,Relative Activity,[3]; 0.01 mM Mn^++,106.6%
same,Relative Activity,[3]; 0.1 mM Mn^++,125.5%
same,Relative Activity,[3]; 1 mM Mn^++,136.7%
same,Relative Activity,[3]; 10 mM Mn^++,155.6%
same,effect on hydrolysis of raw corn starch (in words),[3]; summary of Table 3,enhances the hydrolysis of raw corn starch
same,temperature dependence of Mn^++ activation (in words),[4]; 22-50° C.,occurs at a wide temperature range
same,% Conversion,[4]; 22° C.,0.026%
same,% Conversion,[4]; 32° C.,0.064%
same,% Conversion,[4]; 40° C.,0.152%
same,% Conversion,[4]; 50° C.,0.274%
same,% Relative Activity,"[5]; 0.01 mM Mn^++, raw corn starch",99.5%
same,% Relative Activity,"[5]; 0.01 mM Mn^++, soluble starch",112.5%
same,% Relative Activity,"[5]; 0.1 mM Mn^++, raw corn starch",118.4%
same,% Relative Activity,"[5]; 0.1 mM Mn^++, soluble starch",119.2%
same,% Relative Activity,"[5]; 1 mM Mn^++, raw corn starch",133.3%
same,% Relative Activity,"[5]; 1 mM Mn^++, soluble starch",155.7%
same,% Relative Activity,"[5]; 10 mM Mn^++, raw corn starch",152.2%
same,% Relative Activity,"[5]; 10 mM Mn^++, soluble starch",157.3%
same,effect on hydrolysis of starch (in words),[5]; raw corn starch and soluble starch,enhances the hydrolysis of both raw corn starch and soluble starch
same,Relative Activity,"β-amylase from barley [6]; 0.01 mM Mn^++, cooked dent corn starch 0.5%",123.5%
same,Relative Activity,"β-amylase from barley [6]; 0.01 mM Mn^++, cooked high-amylose V corn starch 0.5%",111.2%
same,Relative Activity,"β-amylase from barley [6]; 0.01 mM Mn^++, cooked soluble corn starch 0.5%",138.7%
same,Relative Activity,"β-amylase from barley [6]; 0.01 mM Mn^++, cooked waxy corn starch 0.5%",114.2%
same,Relative Activity,"β-amylase from barley [6]; 0.1 mM Mn^++, cooked dent corn starch 0.5%",135.3%
same,Relative Activity,"β-amylase from barley [6]; 0.1 mM Mn^++, cooked high-amylose V corn starch 0.5%",123.3%
same,Relative Activity,"β-amylase from barley [6]; 0.1 mM Mn^++, cooked soluble corn starch 0.5%",135.7%
same,Relative Activity,"β-amylase from barley [6]; 0.1 mM Mn^++, cooked waxy corn starch 0.5%",129.9%
same,Relative Activity,"β-amylase from barley [6]; 1 mM Mn^++, cooked dent corn starch 0.5%",149.8%
same,Relative Activity,"β-amylase from barley [6]; 1 mM Mn^++, cooked high-amylose V corn starch 0.5%",136.3%
same,Relative Activity,"β-amylase from barley [6]; 1 mM Mn^++, cooked soluble corn starch 0.5%",174.8%
same,Relative Activity,"β-amylase from barley [6]; 1 mM Mn^++, cooked waxy corn starch 0.5%",148.3%
same,Relative Activity,"β-amylase from barley [6]; 10 mM Mn^++, cooked dent corn starch 0.5%",210.1%
same,Relative Activity,"β-amylase from barley [6]; 10 mM Mn^++, cooked high-amylose V corn starch 0.5%",184.5%
same,Relative Activity,"β-amylase from barley [6]; 10 mM Mn^++, cooked soluble corn starch 0.5%",199.6%
same,Relative Activity,"β-amylase from barley [6]; 10 mM Mn^++, cooked waxy corn starch 0.5%",237.4%
same,Relative Activity,[7]; 0.1 mM Mn^++,124.4%
same,Relative Activity,[7]; 1 mM Mn^++,128.7%
same,Relative Activity,[7]; 10 mM Mn^++,147.8%
same,Relative Activity,[8],113.0% and 119.5%
same,Relative Activity,[9]; 0.01 mM Mn^++,117.6%
same,Relative Activity,[9]; 0.1 mM Mn^++,131.4%
same,Relative Activity,[9]; 1 mM Mn^++,148.0%
same,Relative Activity,[9]; 10 mM Mn^++,215.0%
same,pH range of greatest Mn^++ induced enhancement,"β-amylase from barley [10]; cooked dent corn starch, pH 3-8 tested",5.0-6.0
same,Relative Activity,β-amylase from barley [10]; pH 3,0%
same,Relative Activity,β-amylase from barley [10]; pH 4,105.8%
same,Relative Activity,β-amylase from barley [10]; pH 5,173.1%
same,Relative Activity,β-amylase from barley [10]; pH 6,176.9%
same,Relative Activity,β-amylase from barley [10]; pH 7,165.4%
same,Relative Activity,β-amylase from barley [10]; pH 8,74%
same,Relative Activity,[11]; 0.01 mM Mn^++,106.7%
same,Relative Activity,[11]; 0.1 mM Mn^++,124.7%
same,Relative Activity,[11]; 1 mM Mn^++,142.6%
same,Relative Activity,[11]; 10 mM Mn^++,143.5%
